Columns and labels:
[1] = system: colon cancer and pancreatic cancer cell lines; experiment: Cytotoxicity test on various cancer cells, summary by KRAS codon 12 status; assay type: cell-based; settings: Homo sapiens
Protocol: Using colon cancer and pancreatic cancer cell lines, the cells were seeded in each well of a 96-well microplate, resulting in a cell density of 3000 to 5000 cells/well, and they were then cultured overnight. On the following day, the cells of each type were treated with KR12 recognizing a codon 12 mutation in concentrations of 1 nM, 10 nM, 30 nM, 100 nM, 300 nM, and 1 μM for 48 hours. Thereafter, a WST-8 reagent was added to each well, using cell counting kit-8, and the obtained mixture was then reacted for 2 hours. After that, the number of cells was counted at a wavelength of 450 nm according to a colorimetric analysis method using a microplate reader. The method of counting the number of cells comprises: 1) obtaining the mean value of the medium alone, 2) subtracting the mean value of the medium from each well, 3) obtaining the mean value of DMSO, 4) dividing the medium-subtracted value by the mean value of DMSO and then multiplying by 100, 5) obtaining the mean value of each treatment group and a standard deviation, and then preparing a graph. The calculation formula of IC50 is the following: IC50=10 (LOG (A/B)×(50−C)/(D−C)+LOG (B)), wherein A: a higher concentration of two concentrations sandwiching 50%, B: a lower concentration of two concentrations sandwiching 50%, C: inhibitory percentage at B, and D: inhibitory percentage at A. […]

[2] = system: LS180 (KRAS-MUThetero); experiment: Suppression of tumor growth in nude mice, LS180 transplanted; assay type: in vivo; settings: nude mice with LS180 cells; 3.4 mmol KR12 via the caudal vein; FIG. 14B
Protocol: The below-mentioned 3 types of PBS solutions containing each type of cells were subcutaneously transplanted into the femurs of nude mice (i.e., HT29 into 7 mice, LS180 into 7 mice, and SW480 into 6 mice), and thereafter, at a time point in which a tumor adhered to the living body of each mouse and the tumor volume became approximately 100 mm^3, a drug was prepared with a composition of 3.4 mmol KR12 (1.36 mM KR12 dissolved in 2.5 μL of DMSO and 197.5 μL of PBS), or of a DMSO/PBS control (2.5 μL of DMSO and 197.5 μL of PBS). The prepared drug was subjected to sonication for 10 minutes, and 200 μL of the drug was administered to each mouse via the caudal vein thereof. The body weight and the tumor size were measured once three days, and the size of the tumor was measured by the method of 0.52×L×W×D(1/6×π×L×W×D).
LS180 (KRAS-MUThetero): (transplanted in an amount of 3×10^6 cells/100 μl PBS into the subcutis of each mouse; a cell line having a heterozygous KRAS gene codon 12 mutation G12D)

[3] = Mass spectrometry of mouse urine and mouse bile for KR12 and decomposed product; assay type: in vivo
Protocol: The FITC-labeled KR12 (10 nmol) was administered into the vein of nude mice, into which SW480 cells had been transplanted, and thereafter, their fluorescent image was observed over time. […] Thereafter, twenty-four hours after the administration, the mice were dissected, and incorporation of FITC into various organs was observed. […] Furthermore, localization of KR12 in the cells of tumor, liver, and kidney was observed under a fluorescence microscope. […] The presence of absence of HR12 and a decomposed product thereof in mouse urine and mouse bile was examined by mass spectrometry. […] In the case of tumor cells, lipids are required for the synthesis of a cell membrane or the like, together with cell division, and thus, in general, incorporation of lipids is increased. In addition, excretion via the lymphatics is undeveloped. […] Such accumulation of KR12 in the liver and the kidney is observed even in normal cells. However, since KR12 cannot retain in the cells, it is discharged into bile and/or urine, and is then excreted from these organs. That is, KR12 has excellent effects that it is promptly discharged from normal cells and retains in cancer cells for a long period of time.

[4] = system: gene sequence of the codon 12 mutation of the KRAS gene; experiment: Confirmation of alkylation of KRAS codon 12 mutation sequence, high resolution gel electrophoresis; assay type: biochemical; settings: 23° C., 17 hours
Protocol: A 25 μM pair of two fragments (5′-[…]-3′ (SEQ ID NO: 1) and 3′-[…]-5′ (SEQ ID NO: 2)) (final volume: 50 μL) was annealed to obtain a DNA fragment. The annealed fragment was ligated to a pGEM-T easy vector manufactured by […]. Thereafter, Escherichia coli (JM109) competent cells manufactured by Promega were transformed with the obtained product, and the resulting cells were then cultured at 37° C. overnight in a plate comprising an LB medium containing 100 μg/mL ampicillin. A transformed white colony of interest was identified by colony direct PCR using a 500 nM primer set (T7: 5′-TAATACGACTCACTATAGG-3′ (SEQ ID NO: 3); and sp6: 5′-[…]-3′ (SEQ ID NO: 4)) and 10 μL of a reaction solution containing 1 U GoTaq® Green Master Mix manufactured by Promega. The following amplification cycle was applied. […]
A DNA fragment, 213 base pairs in length, the 5′-terminus of which had been labeled with Texas Red, was synthesized using the above-described plasmid and primers (sp6: 5′-ATTTAGGTGACACTATAG-3′ (SEQ ID NO: 5), and T7: 5′-[…]-3′ (SEQ ID NO: 6), with 5′-terminus labeled with Texas Red). The obtained DNA fragment, the 5′-terminus of which had been labeled with Texas Red, was purified using PCR-Clean Up Kit manufactured by Sigma, and the concentration was then determined by UV absorption. […]

CC(=O)Nc1cn(C)c(C(=O)Nc2cc(C(=O)NCCC(=O)Nc3cn(C)c(C(=O)Nc4cn(C)c(C(=O)Nc5cc(C(=O)Nc6cn(C)c(C(=O)NCCCC(=O)Nc7cc(C(=O)Nc8cn(C)c(C(=O)NCCC(=O)Nc9cc(C(=O)Nc%10cc(C(=O)Nc%11ccc%12[nH]c(C(=O)N%13CC(CCl)c%14c%13cc(O)c%13ccccc%14%13)cc%12c%11)n(C)c%10)n(C)c9)n8)n(C)c7)n6)n(C)c5)n4)n3)n(C)c2)n1 (stereo not drawn) [KR12]
IC50 ([1]; SW1463, DLD-1, HT-29 and Caco-2, cell lines which do not have a codon 12 mutation recognized by KR12): ≥ 100 nM
IC50 ([1]; cell lines having a codon 12 mutation, which is recognized by KR12): ≤ 100 nM
tumor growth [2]: significantly suppressed
metabolic degradation of excreted compound [3]: discharged in a state in which it was not subjected to metabolic degradation
alkylation of the gene sequence of the codon 12 mutation of the KRAS gene ([4]; mutated KRAS sequence of AsPC-1 cells (G12D), FIG. 7B): specifically induced concentration-dependent alkylation
alkylation of the gene sequence of the codon 12 mutation of the KRAS gene ([4]; mutated KRAS sequence of SW480 cells (G12V), FIG. 7A): specifically induced concentration-dependent alkylation
